SMILES strings stand for the structures. Like-named read-outs stand apart in the source and are kept apart here.

The subject of data set [1] is striatal dopamine receptors. In words: antagonism of amphetamine-induced rotation in rats with unilateral 6-hydroxydopamine lesions of the substantia nigra. The class given is in vivo, rat. The settings on record: for ED50: Rattus norvegicus, ip, read-out: Antagonism of Amphetamine-induced Rotation Rats ED50; for ED50 for antagonism of amphetamine-induced rotation: rat. The source says:
(§1) To assess the potency of drugs in blocking striatal dopamine receptors a procedure was used which was developed by Ungerstedt [Ungerstedt and Arbuthnott, Brain Res. 24 485 (1970); Ungerstedt, Acta physiol. scand., Suppl. 367, 49 (1971)] using rats with unilateral lesions of the substantia nigra induced by injection of 6-hydroxydopamine. This treatment causes degeneration of the nigrostriatal dopaminergic pathway accompanied by a marked decrease in the dopamine content of the neostriatum on the side of the lesion. Animals with this lesion develop postural and motor asymmetries which are altered by drugs which effect dopaminergic activity. Amphetamine, which releases dopamine and norepinephrine from catecholaminergic neurons, causes these rats to rotate unidirectionally toward the side of the lesion. Since there is a much larger amount of dopamine to be released by amphetamine from the intact nigrostriatal neurons on the non-lesioned side than from those remaining on the lesioned side, the rotational behavior is apparently due to a preponderance of activation of striatal dopamine receptors on the intact side. The ability of a drug to antagonize the rotational behavior is therefore a measure of its ability to block striatal dopamine receptors and is indicative of its potential to produce EPS.
(§2) To predict the potential ability of a drug to cause EPS, the ratio of its ED50 (i.p.) for antagonism of amphetamine-induced rotation to its ED50 (i.p.) for blockage of shock avoidance acquisition in the rat, a procedure for assessing antipsychotic activity, (R/A ratio) is calculated.

The test system of data set [2] is striatal dopamine receptors. The settings on record: rat, in vivo, ip.
From the text: There is evidence that antipsychotic drugs cause EPS by interfering with neurotransmission in a nigrostriatal dopaminergic pathway. It is throught that they block dopamine receptors in the neostriatum. Therefore, the ability of a drug to block striatal dopamine receptors is a measure of its EPS liability.
as §1, §2

For data set [3] the following is noted: clinically established antipsychotics; cited from earlier work.
The test system of data set [4] is shock avoidance acquisition. As to the kind of experiment: blockade of shock avoidance acquisition in the rat (procedure for assessing antipsychotic activity). The class given is in vivo. As to conditions: i.p. As for the experimental part:
as §2

Turning to `CN1CCN(CCCN2c3ccccc3Sc3ccc(C(F)(F)F)cc32)CC1` [Trifluoperazine, trifluoperazine], in data set [1] (rats, i.p., Table I, R), the ED50 (commonly the dose that gives a 50% effect, or the effect in half of the subjects) came out at 0.12 mg/kg. Also, the R/A ratio in data set [2] is 0.3-0.5. Besides, the “propensity to cause EPS relative to chlorpromazine” value in data set [3] is given as “considerably greater propensity to cause EPS than chlorpromazine”.

Take `O=C(CCCN1CCC(O)(c2ccc(Cl)cc2)CC1)c1ccc(F)cc1` [Haloperidol, haloperidol]: in data set [1] (rats, i.p., Table I, R), the ED50 was determined as 0.05 mg/kg. Besides, in data set [2], the R/A ratio is given as 0.3-0.5. Further, the “propensity to cause EPS relative to chlorpromazine” value in data set [3] is reported as “considerably greater propensity to cause EPS than chlorpromazine”.

In the case of `Clc1ccc2c(c1)C(=C1CCC3CCCCN3C1)c1ccccc1S2` (stereo not drawn) [3-(2-chlorothioxanthen-9-ylidene)quinolizidine, isomer havin], the “ED50 for blockade of shock avoidance acquisition” value in data set [4] was found to be 1.7 mg/kg. For the same compound, the “ED50 for antagonism of amphetamine-induced rotation” value in data set [1] (i.p.) came out at 8.2 mg/kg. Also, the R/A ratio in data set [2] is reported as 4.8.

Consider `Clc1ccc2c(c1)C(=C1CCC3CCCCN3C1)c1ccccc1S2` (stereo not drawn) [3-(2-chlorothioxanthen-9-ylidene)quinolizidine, other isomer], for which the “ED50 for blockade of shock avoidance acquisition” value in data set [4] was 0.7 mg/kg. Further, the “ED50 for antagonism of amphetamine-induced rotation” value in data set [1] (i.p.) is 2.3 mg/kg. Besides, the R/A ratio in data set [2] was determined as 3.3.

Regarding `O=c1[nH]c2ccccc2n1C1CCN(CCCC(c2ccc(F)cc2)c2ccc(F)cc2)CC1` [Pimozide, pimozide], in data set [1], the ED50 was determined as 0.08 mg/kg. In addition, the “propensity to cause EPS relative to chlorpromazine” value in data set [3] is on record as “considerably greater propensity to cause EPS than chlorpromazine”.

With `CN(C)CCCN1c2ccccc2Sc2ccc(Cl)cc21` [Chlorpromazine], in data set [1], the ED50 was found to be 2 mg/kg.

In the case of `CSc1ccc2c(c1)N(CCC1CCCCN1C)c1ccccc1S2` (centres unmarked) [Thioridazine, thioridazine], the ED50 in data set [1] (rats, i.p., Table I, R) stood at 13.7 mg/kg. The R/A ratio in data set [2] is reported as 2.7. Besides, the “propensity to cause EPS relative to chlorpromazine” value in data set [3] is reported as “known to produce EPS to a lesser extent than chlorpromazine”.

For `CN1CCN(C2=Nc3cc(Cl)ccc3Nc3ccccc32)CC1` [Clozapine, clozapine], the ED50 in data set [1] (rats, i.p., Table I, R) came to 25.4 mg/kg. The “propensity to cause EPS relative to chlorpromazine” value in data set [3] is “known to produce EPS to a lesser extent than chlorpromazine”.
